The source of these data is US11028127B2, “Peptides capable of reactivating p53 mutants” (Yeda Research and Development Co. Ltd., priority 2013, dated 2021).

Data set [1] concerns the target p53 DBD (Homo sapiens, UniProt P04637). As to conditions: cited from earlier work.
Data set [2] deals with H1299 cells stably transfected with Mut-p53 (ts) A135V. Description: qRT-PCR of p53 target genes (p21, PUMA, Mdm2). Type of data set: cell-based. Particulars: 5 ug/ml, 18 hours, 37° C., relative to non-treated cells; positive control (32° C.) 9-11 fold. On the procedure:
H1299 cells are p53 null and are widely used for p53 research. H1299 cells stably transfected with Mut-p53 (ts) A135V were used. […] 18 hours later cells were harvested, followed by extraction of RNA, cDNA synthesis and real time PCR analysis. The expression level of 3 representative p53 target genes, p21, PUMA and Mdm2, was examined.
For the in vivo functional screening, several experimental systems were used. One system is based on H1299 cells, which are p53 null and are widely used for p53 research. H1299 cells stably transfected with Mut-p53 (ts) A135V were used. This form of p53 is a temperature sensitive mutant, which has a mutant conformation at 37° C. and a WT conformation at 32° C. […] 18 hours later cells were harvested, followed by extraction of RNA, cDNA synthesis and real time PCR analysis. The expression level of 3 representative p53 target genes was examined; p21, PUMA and Mdm2. Expression of genes in H1299-ts at 37° C. is considered as background level and all results are normalized to it, and also to the GAPDH housekeeping gene. Expression of genes in H1299-ts at 32° C. represents WT p53 conformation and therefore serves as a positive control.
Several tested peptides indeed caused a significant increase in the expression of p21, PUMA and Mdm2. This was the case for pCAP-130, pCAP-135, pCAP-142, pCAP-144 and pCAP-148. […]

The test system of data set [3] is MDA-MB-231 breast cancer cells (Mut-p53, position 280). As to the kind of experiment: Crystal violet viability assay. In kind it is cell-based. As to conditions: shCon cells. The text has this: (§1) FIGS. 15A and 15B are bar graphs illustrating the effect of the various indicated peptides on the viability of breast cancer cells expressing different Mut-p53 isoforms, as determined by crystal violet assay. FIG. 15A: MDA-MB-231 cells expressing Mut-p53 with a mutation at position 280 of the DBD. FIG. 15B: SKBR3 cells expressing Mut-p53 with mutation at position 175 within the DBD. The bar graphs in FIGS. 15A and 15B show for each tested peptide the optical density reads at 595 nm, reflecting the number of cells in the plate after treatment, normalized to the non-treated (NT) samples.
(§2) Cells were cultured in 96 wells plates with 2500-4000 cells/well in 0.1 ml and incubated overnight at 37° C. in order to adhere to the plate. Serial dilutions of different peptides (0.5 μg/ml) were added in 0.1 ml aliquots and the plates incubated for additional 48 h at 37° C. Then medium was removed and cell lysis was determined by staining the cells with crystal violet (0.5%) in methanol/water (1:4, v/v), 50 μl each well, for 10 min, followed by 3 washes with PBS. Afterwards, 10% acetic acid (50 μl) was added to each well and shaken for 10 min. Then, automatic plate reading was performed at 595 nm.
(§3) Experiments using different cancer cell lines expressing endogenously different p53 mutant isoforms were performed. FIGS. 15A and 15B illustrate two representative experiments performed on MDA-MB-231 (FIG. 15A) and SKBR3 (FIG. 15B) breast cancer cells expressing Mut-p53 with mutations at positions 280 or 175, respectively, within the DNA Binding Domain (DBD). To examine the peptides' specificity for Mut-p53, the control used was such cells with a knockdown of Mut-p53 (shp53).

For data set [4], the system named is SKBR3 breast cancer cells (Mut-p53, position 175). As to the kind of experiment: Crystal violet viability assay. Type of data set: cell-based. Particulars: shCon cells.
From the text: as §1, §2, §3

A short description of data set [5]: Crystal violet viability assay. Type of data set: cell-based. As to conditions: human, shp53 (Mut-p53 knockdown) subline.
From the text: as §1, §2, §3

Data set [6] concerns SKBR3 cells expressing endogenous R175H p53. Particulars: SKBR3 ShCon cells, 5 ug/ml, 18 hours. The method, then: FIG. 16 is a bar graph illustrating the effect of the indicated peptides on activation of Mut-p53 by measuring transactivation of p53 target genes as determined by qRT-PCR. SKBR3 ShCon cells and SKBR3 Shp53 cells knocked down for p53 expression were used. The cells were plated in 12-well dishes and the indicated peptides were added directly to the medium at a concentration of 5 ug/ml. 18 hours later cells were harvested, followed by qRT-PCR analysis. Expression level of p21, PUMA and Mdm2 was evaluated. FIG. 16 illustrates the relative fold induction of transcription of the tested genes in the various samples relative to their transcription level in non-treated cells. GAPDH mRNA was measured in parallel as a control.
RNA was obtained using Macherey-Nagel NucleoSpin RNA II Kit on cells pellet according to the manufacturer's protocol. Aliquots of 0.4-1 μg were reverse transcribed using Bio-RT 2000 (Bio-Lab) and random hexamer primers. Quantitative real-time polymerase chain reaction (QRT-PCR) was performed on an ABI 7300 instrument (Applied Biosystems) using PerfeCTa SYBR Green FastMix ROX (Quanta). RT-PCR primers used are presented in Table 1 (primers sequences are presented 5′ to 3′).
The tested peptides were further tested for their effect on p53 target gene expression in SKBR3 cells expressing endogenous R175H p53. […] In essence, these cells were plated in 12-well dishes; the indicated peptides were added directly to the medium at a concentration of 5 ug/ml. 18 hours later cells were harvested, followed by qRT-PCR analysis. Expression level of p21, PUMA and Mdm2 was evaluated. Expression of those genes in non-treated cells is considered background and all results were normalized to it, as well as to GAPDH.

Data set [7] in a line: Solubility in DMSO. Type of data set: physicochemical. As to conditions: at a concentration of 10 mg/ml. The text has this:
Addition of a poly arginine tail to peptides dramatically increases the solubility of peptides with a high content of hydrophobic amino acids. […] Lead peptides were further subjected to rigorous examination of effects on cell viability in a Mut-p53 specific manner.

Data set [8] concerns ES2 ovarian carcinoma cells (Mut-p53, position 241). As to the kind of experiment: qRT-PCR of p53 target genes (p21, PUMA, CD95, Btg-2). Type of data set: cell-based. As to conditions: 12 ug/ml, over non-treated cells. On the procedure:
(§4) FIGS. 17A, 17B, 17C and 17D illustrate representative experiments performed on ES2 ovarian carcinoma cells expressing Mut-p53 mutated at position 241 within the DBD. […] Cells were harvested and an apoptosis assay (FIGS. 17A and 17B) was performed using the Annexin-V staining kit (Roche, REF 11 988 549 001). Non-fixed cells were stained with both anti Annexin FITC conjugated antibody to detect apoptotic cells, and PI (propidium iodide) to stain dead cells, according to the manufacturer's instructions. Stained cells were then analyzed by flow cytometry. A total of 10,000 cells was counted for each sample and divided into four sub populations according to staining intensity; cells negative for both PI and Annexin (−PI, −Annexin) are termed live; cells negative for PI and positive for Annexin (−PI, +Annexin) are going through early stages of apoptosis; cells positive for PI and Annexin (+PI, +Annexin) are dead cells that underwent an apoptotic process; and cells positive for PI and negative for Annexin (+PI, −Annexin) are assumed as dead cells that died by a non-apoptotic process such as necrosis.
FIGS. 17A and 17B illustrate a representative experiments performed on ES2 ovarian carcinoma cells (FIGS. 17A-D) expressing Mut-p53 with a mutation at positions 241 within the DBD. […] Stained cells were then analyzed by flow cytometry. […]

The test system is the same in data set [9]. As to the kind of experiment: Annexin-V/PI apoptosis assay by flow cytometry. In kind it is cell-based. As to conditions: 12 ug/ml. On the procedure: as §4
FIGS. 17A and 17B illustrate a representative experiments performed on ES2 ovarian carcinoma cells (FIGS. 17A-D) expressing Mut-p53 with a mutation at positions 241 within the DBD. […] Cells were harvested, and 60% of the cells were taken for Annexin-PI apoptosis assay and 40% for extraction of RNA, cDNA synthesis and real time PCR analysis. Apoptosis was assayed using the Annexin-V staining kit (Roche, REF 11 988 549 001). Non-fixed cells were stained with both anti Annexin FITC conjugated antibody to detect apoptotic cells, and PI (propidium-iodide) to stain dead cells permeable to the compound, according to the manufacturer's instructions. Stained cells were then analyzed by flow cytometry. A total of 10,000 cells was counted for each sample and divided into four subpopulations according to staining intensity: cells negative for both PI and Annexin (−PI, −Annexin) are termed live; cells negative for PI and positive for Annexin (−PI, +Annexin) are going through early stages of apoptosis; cells positive for PI and Annexin (+PI, +Annexin) are dead cells that underwent an apoptotic process; and cells positive for PI and negative for Annexin (+PI, −Annexin) are assumed to be dead cells that died a non-apoptotic death such as necrosis. […] Treatment with pCAPs 242 and 250 causes a rapid increase in apoptotic cells followed by cell death and after 5 hours of treatment 12% of cells are Annexin positive and about 7% are dead. After 16 and 24 hours of treatment with pCAP 250 the apoptotic population increases to about 27% and dead cells accumulate to 29% at 16h and 36% after 24h. […] CD95 and Btg-2 expression is elevated up to 6 fold over non-treated cells.

Like-named read-outs stand apart in the source and are kept apart here. Where no end group is shown, it is not given here.

p53 DBD, sequence (P04637 102-292 limits assumed): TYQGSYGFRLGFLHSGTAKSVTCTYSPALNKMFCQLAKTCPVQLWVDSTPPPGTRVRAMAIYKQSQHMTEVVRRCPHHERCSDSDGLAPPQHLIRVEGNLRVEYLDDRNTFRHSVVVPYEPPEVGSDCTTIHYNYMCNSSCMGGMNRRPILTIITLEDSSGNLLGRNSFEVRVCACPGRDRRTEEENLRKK

For `COc1ccc(/C=C/c2nc(NCCCN(C)C)c3ccccc3n2)cc1` [CP-31398], in data set [1], the “binding to the p53 DBD by NMR” value is recorded as “failed to detect any binding”.

“GGGGGGGGGRRRRRRR [pCAP-76, negative control peptide]”: the “induction of transcription of p53 target genes p21, PUMA and Mdm2” value in data set [2] is reported as “did not cause induction of p53 targets”.

As for HANLHHTRRRRRRRRRRR [pCAP-146], the “Mut-p53 specific effect on cell viability, MDA-MB-231 shCon cells” value in data set [3] is “significant decrease”. Moreover, the “Mut-p53 specific effect on cell viability, SKBR3 shCon cells” value in data set [4] is listed as “almost no specific effect”.

For the compound IRGRIIRRRRRRRRRR [pCAP-155], the cytotoxicity at 48 h in data set [5] (MDA-MB-231 shp53 (Mut-p53 knockdown) breast cancer cells, read-out: reduction in viability, MDA-MB-231 shp53 cells) was 30 to 40%; in data set [5] (SKBR3 shp53 (Mut-p53 knockdown) breast cancer cells, read-out: reduction in viability, SKBR3 shp53 cells), 30 to 40%. In addition, the “transactivation of p53 target genes (p21, PUMA, Mdm2)” value in data set [6] was “among the highest transactivation levels”.

In the case of YRRLLIGMMW [pCAP-25], the “solubility in DMSO” value in data set [7] is “insoluble”.

Turning to myr-RRHSTPHPD [pCAP-250], the “p21 and PUMA mRNA expression increase over time” value in [8] is given as “up to 10 fold”. The apoptotic population entry in data set [9] (after 16 and 24 hours of treatment) is “about 27%”. The compound further came in with an Annexin positive cells in data set [9] (after 5 hours of treatment) of 12%. Also, the dead cells result is “about 7%” in data set [9] (after 5 hours of treatment), 36% in [9] (after 24h) and 29% in [9] (at 16h).
